# The source made the active and inactive calls. The rule behind the calls is not given here.
# What was measured:
# Clostridioides difficile [1] = assay: Antibacterial activity against Clostridium difficile ATCC 43255 measured after 48 hrs by two fold serial dilution method; assay type: functional
# THP-1 = assay: Cytotoxicity against human THP-1 cells assessed as increase in LDH release incubate for 24 hrs by trypan-blue staining based analysis; assay type: functional, cell-based; conditions: THP-1, 24 h
# [2] = Selectivity ratio of IC50 for human THP-1 cells to MIC for Clostridium difficile ATCC 43255; assay type: toxicity
# HepG2 = assay: Antiproliferative activity against human HepG2 cells assessed as inhibition of cell growth by XTT assay; assay type: functional, cell-based
# [3] = Selectivity ratio of IC50 for human HepG2 cells to MIC for Clostridium difficile ATCC 43255; assay type: toxicity
# Clostridioides difficile [4] = assay: Bactericidal activity against Clostridium difficile ATCC 43255 incubated for 48 hrs under anaerobic conditions; assay type: functional
# [5] = Selectivity ratio of MBC for bactericidal activity against Clostridium difficile ATCC 43255 to MIC for antibacterial activity for Clostridium difficile ATCC 43255; assay type: functional, Clostridioides difficile
# Clostridioides difficile [6] = assay: Antibacterial activity against Clostridium difficile ATCC 43255 assessed as log reduction in bacterial growth at 1 to 8 times MIC measured upto 48 hrs under anaerobic condition; assay type: functional
# Clostridioides difficile [7] = assay: Antibacterial activity against Clostridium difficile ATCC 43255 isolated from abdominal wound assessed as inhibition of bacterial growth measured after 48 hrs by two fold serial dilution method; assay type: functional
# Clostridioides difficile [8] = assay: Antibacterial activity against Clostridium difficile BAA-1870 assessed as inhibition of bacterial growth measured after 48 hrs by two fold serial dilution method; assay type: functional
# Clostridioides difficile [9] = assay: Antibacterial activity against Clostridium difficile BAA-1803 clinical isolate assessed as inhibition of bacterial growth measured after 48 hrs by two fold serial dilution method; assay type: functional
# Clostridioides difficile [10] = assay: Antibacterial activity against Clostridium difficile NR49310 isolated from human feces assessed as inhibition of bacterial growth measured after 48 hrs by two fold serial dilution method; assay type: functional
# Clostridioides difficile [11] = assay: Antibacterial activity against Clostridium difficile NR49294 isolated from human feces assessed as inhibition of bacterial growth measured after 48 hrs by two fold serial dilution method; assay type: functional
# Clostridioides difficile [12] = assay: Antibacterial activity against Clostridium difficile NR49305 isolated from human feces assessed as inhibition of bacterial growth measured after 48 hrs by two fold serial dilution method; assay type: functional
# Clostridioides difficile [13] = assay: Antibacterial activity against Clostridium difficile NR49318 isolated from human feces assessed as inhibition of bacterial growth measured after 48 hrs by two fold serial dilution method; assay type: functional
# Clostridioides difficile [14] = assay: Antibacterial activity against Clostridium difficile NR49292 assessed as inhibition of bacterial growth measured after 48 hrs by two fold serial dilution method; assay type: functional
# Clostridioides difficile [15] = assay: Antibacterial activity against Clostridium difficile NR49302 isolated from human feces assessed as inhibition of bacterial growth measured after 48 hrs by two fold serial dilution method; assay type: functional
# Clostridioides difficile [16] = assay: Antibacterial activity against Clostridium difficile 26675 clinical isolate assessed as inhibition of bacterial growth measured after 48 hrs by two fold serial dilution method; assay type: functional
# Clostridioides difficile [17] = assay: Antibacterial activity against Clostridium difficile 23828 clinical isolate assessed as inhibition of bacterial growth measured after 48 hrs by two fold serial dilution method; assay type: functional
# Clostridioides difficile [18] = assay: Antibacterial activity against Clostridium difficile 24531 clinical isolate assessed as inhibition of bacterial growth measured after 48 hrs by two fold serial dilution method; assay type: functional
# Staphylococcus aureus [19] = assay: Antibacterial activity against methicillin/oxacillin/tetracycline resistant vancomycin resistant Staphylococcus aureus NRS100 assessed as inhibition of bacterial growth measured after 48 hrs by two fold serial dilution method; assay type: functional
# Staphylococcus aureus [20] = assay: Antibacterial activity against ciprofloxacin/gentamicin/oxacillin/pencillin/linezolid resistant Staphylococcus aureus NRS119 assessed as inhibition of bacterial growth measured after 48 hrs by two fold serial dilution method; assay type: functional
# [21] = test system: Staphylococcus haemolyticus; assay: Antibacterial activity against Staphylococcus haemolyticus ATCC 29970 assessed as inhibition of bacterial growth measured after 48 hrs by two fold serial dilution method; assay type: functional
# Streptococcus pyogenes = assay: Antibacterial activity against Streptococcus pyogenes ATCC 49399 assessed as inhibition of bacterial growth measured after 48 hrs by two fold serial dilution method; assay type: functional
# Enterococcus faecalis = assay: Antibacterial activity against vancomycin resistant Enterococcus faecalis 99 clinical isolate assessed as inhibition of bacterial growth measured after 48 hrs by two fold serial dilution method; assay type: functional
# Enterococcus faecium [22] = assay: Antibacterial activity against vancomycin susceptible Enterococcus faecium119-39A clinical isolate assessed as inhibition of bacterial growth measured after 48 hrs by two fold serial dilution method; assay type: functional; conditions: 119-39A
# Enterococcus faecium [23] = assay: Antibacterial activity against vancomycin resistant Enterococcus faecium 106 clinical isolate assessed as inhibition of bacterial growth measured after 48 hrs by two fold serial dilution method; assay type: functional
# Bacteroides fragilis = assay: Antibacterial activity against Bacteroides fragilis HM-709 assessed as inhibition of bacterial growth measured after 48 hrs by two fold serial dilution method; assay type: functional
# Corynebacterium sp. = assay: Antibacterial activity against Corynebacterium sp. HM-784 assessed as inhibition of bacterial growth measured after 48 hrs by two fold serial dilution method; assay type: functional
# [24] = test system: Limosilactobacillus reuteri; assay: Antibacterial activity against Lactobacillus reuteri HM-102 assessed as inhibition of bacterial growth measured after 48 hrs by two fold serial dilution method; assay type: functional
# Lactobacillus gasseri = assay: Antibacterial activity against Lactobacillus gasseri HM-644 assessed as inhibition of bacterial growth measured after 48 hrs by two fold serial dilution method; assay type: functional
# Eubacterium sp. = assay: Antibacterial activity against Eubacterium sp. HM-178 assessed as inhibition of bacterial growth measured after 48 hrs by two fold serial dilution method; assay type: functional
# Klebsiella pneumoniae = assay: Antibacterial activity against Klebsiella pneumoniae ATCC700603 assessed as inhibition of bacterial growth measured after 48 hrs by two fold serial dilution method; assay type: functional
# Acinetobacter baumannii = assay: Antibacterial activity against Acinetobacter baumannii ATCC17961 assessed as inhibition of bacterial growth measured after 48 hrs by two fold serial dilution method; assay type: functional
# Pseudomonas aeruginosa = assay: Antibacterial activity against Pseudomonas aeruginosa ATCC27853 assessed as inhibition of bacterial growth measured after 48 hrs by two fold serial dilution method; assay type: functional
# Klebsiella aerogenes = assay: Antibacterial activity against Klebsiella aerogenes ATCC35029 assessed as inhibition of bacterial growth measured after 48 hrs by two fold serial dilution method; assay type: functional
# Escherichia coli = assay: Antibacterial activity against Escherichia coli ATCC25922 assessed as inhibition of bacterial growth measured after 48 hrs by two fold serial dilution method; assay type: functional
# Clostridioides difficile [25] = assay: Antibacterial activity against Clostridium difficile ATCC 43255 assessed as as time duration of post-antibiotic effect for suppression of bacterial growth at 2 times MIC incubated for 1 hr in broth solution; assay type: functional
# Clostridioides difficile [26] = assay: Antibacterial activity against Clostridium difficile ATCC 43255 assessed as as time duration of post-antibiotic effect for suppression of bacterial growth at 1 time MIC incubated for 1 hr in broth solution; assay type: functional
# Clostridioides difficile [27] = assay: Antibacterial activity against Clostridium difficile ATCC 43255 assessed as as time duration of post-antibiotic effect for suppression of bacterial growth at 4 times MIC incubated for 1 hr in broth solution; assay type: functional
# Clostridioides difficile [28] = assay: Antibacterial activity against Clostridium difficile ATCC 43255 assessed as as time duration of post-antibiotic effect for suppression of bacterial growth at 8 times MIC incubated for 1 hr in broth solution; assay type: functional
# Clostridioides difficile [29] = assay: Induction of resistance against Clostridium difficile ATCC 43255 assessed as fold increase in MIC measured after 8 passages under anaerobic conditions; assay type: functional
# Clostridioides difficile [30] = assay: Induction of resistance against Clostridium difficile ATCC 43255 assessed as fold increase in MIC measured after 14 passages under anaerobic conditions; assay type: functional
# Clostridioides difficile [31] = assay: Induction of resistance against Clostridium difficile ATCC 43255 assessed as fold increase in MIC measured after 20 passages under anaerobic conditions; assay type: functional
# Clostridioides difficile [32] = assay: Antibacterial activity against Clostridium difficile ATCC 43255 assessed as damage in cell wall at 8 time MIC incubated for 24 hrs by scanning electron microscopy based analysis; assay type: functional, organism-based
compound,measurement,setting,value
O=[N+]([O-])c1c[nH]c(-c2nc(-c3ccc(OC4CCCC4)cc3)no2)n1,MIC,Clostridioides difficile [1],0.25 µg/mL
same,IC50,THP-1,> 128 µg/mL
same,selectivity ratio,[2],> 512
same,IC50,HepG2,53.4 µg/mL
same,selectivity ratio,[3],214
same,MBC,Clostridioides difficile [4],0.5 µg/mL
same,Ratio,[5],2
same,Activity,Clostridioides difficile [6],4 log10CFU/ml
same,MIC,Clostridioides difficile [7],0.25 µg/mL
same,MIC,Clostridioides difficile [8],0.125 µg/mL
same,MIC,Clostridioides difficile [9],0.125 µg/mL
same,MIC,Clostridioides difficile [10],0.25 µg/mL
same,MIC,Clostridioides difficile [11],0.5 µg/mL
same,MIC,Clostridioides difficile [12],0.125 µg/mL
same,MIC,Clostridioides difficile [13],0.5 µg/mL
same,MIC,Clostridioides difficile [14],0.125 µg/mL
same,MIC,Clostridioides difficile [15],0.25 µg/mL
same,MIC,Clostridioides difficile [16],2 µg/mL
same,MIC,Clostridioides difficile [17],1 µg/mL
same,MIC,Clostridioides difficile [18],0.125 µg/mL
same,MIC,Staphylococcus aureus [19],64 µg/mL
same,MIC,Staphylococcus aureus [20],32 µg/mL
same,MIC,[21],32 µg/mL
same,MIC,Streptococcus pyogenes,> 128 µg/mL
same,MIC,Enterococcus faecalis,128 µg/mL
same,MIC,Enterococcus faecium [22],128 µg/mL
same,MIC,Enterococcus faecium [23],128 µg/mL
same,MIC,Bacteroides fragilis,128 µg/mL
same,MIC,Corynebacterium sp.,> 128 µg/mL
same,MIC,[24],> 128 µg/mL
same,MIC,Lactobacillus gasseri,> 128 µg/mL
same,MIC,Eubacterium sp.,64 µg/mL
same,MIC,Klebsiella pneumoniae,> 128 µg/mL
same,MIC,Acinetobacter baumannii,> 128 µg/mL
same,MIC,Pseudomonas aeruginosa,> 128 µg/mL
same,MIC,Klebsiella aerogenes,> 128 µg/mL
same,MIC,Escherichia coli,> 128 µg/mL
same,Time,Clostridioides difficile [25],5 h
same,Time,Clostridioides difficile [26],3 h
same,Time,Clostridioides difficile [27],7 h
same,Time,Clostridioides difficile [28],7 h
same,fold change (FC),Clostridioides difficile [29],2
same,fold change (FC),Clostridioides difficile [30],4
same,fold change (FC),Clostridioides difficile [31],8
same,Activity,Clostridioides difficile [32],Active

# Reference: ChEMBL document CHEMBL5370591, “A Potent and Narrow-Spectrum Antibacterial against Clostridioides difficile Infection” (J Med Chem, 2023)
